One test concerns SDH. As to the kind of experiment: Inhibition of crystal formation on cellular structures by prior incubation with SDH inhibitor. Type of test: cell-based. The following applies: prior incubation of cells with the SDH inhibitor, crystals of Examples 4 through 7. The text has this:
The crystallization of organelles, such as centrosome, mitochondrion, or nuclear envelopes (or endoplasmic retulum), effectively stopped cell proliferation and induced cell death as well. This kind of cell death, which is different form either necrosis or appoptosis, is called cellular-organelle-crystallizatin-induced-death, […]. COCID also refers to the cell death, induced by the crystallization of cytoskeletons as well as the crystallization of the sub-units of cellular organelles and cytoskeletons. COCID further refers to the cell death, induced by the crystallization of proteins and small molecules located on cytoskeletons or the sub-units of cellular organelles and ccytoskeletons.
[…]

The test system of the next test is 9 L gliosarcoma. As to the kind of experiment: In vivo antitumor activity of tetrazolium salts in polylactic acid polymer, established flank tumor in rats (Example 3). The note with it: 2.5 mg/kg in polylactic acid polymer implanted in 14 day established tumor, tumor volume on day 60, n=6.

As for `O=C(O)CC[N+](=O)[O-]` [nitropropionic acid], the “inhibition of the crystals on the cellular structures” value in the test on SDH is “could be inhibited”. Regarding `c1ccc(-c2nn(-c3ccccc3)[n+](-c3ccccc3)n2)cc1` [TR, 2,3,5-triphenyltetrazolium chloride], in the test with 9 L gliosarcoma, the Tumor size worked out at 44 ± 5.3 cm^3. The same measure, in the same setting: the same measure for `c1ccc(-c2nn(-c3ccccc3)[n+](-c3cccc4ccccc34)n2)cc1` [TV, 2,5-diphenyl-3-[1-naphthyl]-2H-tetrazolium chloride]: 21 ± 2.3 cm^3.

These data come from patent publication US6864272B2, “Method and composition for treating cancer using cellular organelle crystallizing agents” (priority 2000, dated 2005).
